Source: patent publication US11192900B2, “Substituted 1,6-dihydropyridinones and 1,2-dihydroisoquinolinones as bet inhibitors” (NUVATION BIO INC., priority 2018, dated 2021)
Where two headings read alike, the source gives them in different places.

Assays:
KG-1a = test: Cell viability in AML and DLBCL cell lines (Cell Titer-Glo); assay type: cell-based; conditions: Homo sapiens, 72 hr
Method: (§1) A panel of AML and DLBCL cell lines was profiled for effects of compound 3 on cell viability. Cells were seeded at a count of 3000-8000 cells per well/40 μl in a 384-well plate and incubated at 37° C., 5% CO2 overnight. Cells were treated with test compounds at 10 concentrations within a desired concentration range (e.g. 0.5 nM-10 μM) for generation of dose response curves by preparing serial dilutions of the test compound in DMSO which were further diluted with culture medium and then added in a volume of […] to each well. Cells were cultured in the presence of inhibitors at various concentrations for 72 hr. The assay was terminated by addition of […] Cell Titer-Glo reagent (Promega, Madison, Wis.) to each well. Contents were mixed, the plate was incubated for 10 min at room temperature and luminescence was measured. The IC50 value of each test compound was calculated with XLFit curve fitting software.

WSU-DLCL2 = test: as above; assay type: cell-based; conditions: Homo sapiens, WSUDLCL2, 72 hr
Method: as §1

KOPN-8 = test: as above; assay type: cell-based; conditions: Homo sapiens; KOPN-8, Cell Titer-Glo, 72 hr
Method: as §1

NOMO-1 = test: as above; assay type: cell-based; conditions: Homo sapiens; NOMO-1, Cell Titer-Glo, 72 hr
Method: as §1

[1] = tested on: MV-4-11 human acute myeloid leukemia cell line; test: Second cell viability assay in MV-4-11 (Cell Titer-Glo); assay type: cell-based; conditions: Homo sapiens; MV4-11, Cell Titer-Glo, 72 hrs; read-out: Cell Viability IC50 in MV4-11 cells
Method: The effects of test compounds were studied in a second cell viability assay in the MV-4-11 human acute myeloid leukemia cell line. The cells were harvested during the logarithmic growth period and counted. Cells were seeded at a count of 15000 cells per well/100 μl. After seeding, cells were incubated at 37° C., 5% CO2 for 1 hr. Cells were treated with test compounds at 8 concentrations within a desired concentration range (e.g. 5 nM-[…]) for generation of dose response curves by preparing serial dilutions of the test compound in DMSO which were further diluted with culture medium and then added to each well. The plate was further incubated for another 72 hrs in a humidified incubator at 37° C. and 5% CO2. The assay was terminated by addition of Cell Titer-Glo reagent (Promega, Madison, Wis.) at ¼ the volume of total medium per well. Contents were mixed, the plate was incubated for 10 min at room temperature and luminescence was measured. Cell viability data were plotted using GraphPad Prism (GraphPad Software, Inc., San Diego, Calif.). In addition, a nonlinear regression model with a sigmoidal dose response and variable slope within GraphPad Prism was used to calculate the IC50 value of individual test compounds.

c-Myc = test: Measurement of c-Myc suppression after washoff (Western blot); assay type: cell-based, human; conditions: MV4-11, 2 μM for 2 hr, washed, further 6 hr
Method: MV4-11 cells were incubated with 2 μM of JQ1, mivebresib or a test compound for 2 hr. The cells were then washed twice with fresh culture medium and further cultured for another 6 hr. Cells were extracted with SDS sample buffers and then subjected to Western blot analysis to measure c-Myc. Compounds 2, 3, 12, 17, 409, 411 and 412 were tested in these assays.

BRD4-2 = BRD4-2 (Homo sapiens (Human), UniProt O60885); test: Bromodomain and Extraterminal Domain (BET) Binding Assay
Summary of the method: (§2)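 AlphaScreen displacement of biotinylated H4 (1-21) K5/8/12/16Ac peptide, in 50 mM HEPES pH 7.5, 100 mM NaCl, 1 mg/ml BSA, 0.05% CHAPS, 0.5% DMSO. Protein-compound preincubation 30 min RT, then ligand 30 min, donor then acceptor beads 60 min dark. Inhibition versus plate controls; IC50 from 10-point titrations.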

BRD2-2 = BRD2-2 (Homo sapiens (Human), UniProt P25440); test: as above
Summary of the method: as §2

[2] = tested on: IEC-6 rat intestinal epithelial cell line; test: IEC-6 cell viability, Protocol A (toxicity to non-cancerous cells); assay type: cell-based; conditions: IEC-6, 3000 cells per well, 96 hrs
Method: The effects of test compounds were also studied in the IEC-6 rat intestinal epithelial cell line to assess potential toxicity to non-cancerous cells. The cells were harvested during the logarithmic growth period and counted. In Protocol A, cells were seeded at a count of 3000 cells per well/100 μl in a 96-well plate. After seeding, cells were incubated at 37° C., 5% CO2 for 24 hr. Cells were treated with test compounds at 8 concentrations within a desired concentration range (e.g. 5 nM-10 μM) for generation of dose response curves by preparing serial dilutions of the test compound in DMSO which were further diluted with culture medium and then added to each well. The plate was further incubated for another 96 hrs in humidified incubator at 37° C. and 5% CO2. The assay was terminated by addition of resazurin (# R7017, Sigma). The plate was incubated for 4 hr at 37° C., 5% CO2 and fluorescence was measured using excitation and emission wavelengths of 535 and 590 nm, respectively. Cell viability data were plotted using GraphPad Prism (GraphPad Software, Inc., San Diego, Calif.). In addition, a nonlinear regression model with a sigmoidal dose response and variable slope within GraphPad Prism was used to calculate the IC50 value of individual test compounds. […]

MV4-11 cells = test: Cell viability assay after wash-off (FITC-annexin V / 7-AAD flow cytometry); assay type: cell-based, human; conditions: MV4-11, 0.5 or 2 μM for 2 or 4 hr, total 48 hr
Method: MV4-11 cells were incubated with compound (at a concentration of 0.5 or 2 μM) or mivebresib (at a concentration of 0.5 or 2 μM) for 2 or 4 hr before wash-off with culture medium and re-plated in fresh culture medium for a total of 48 hr. Cells were stained with FITC-annexin V and 7-AAD before flow cytometric analysis using a Stratedigm flow cytometer. Viable cells are negative for FITC-annexin V and 7-AAD.

BRD2-2, sequence (P25440 344-453): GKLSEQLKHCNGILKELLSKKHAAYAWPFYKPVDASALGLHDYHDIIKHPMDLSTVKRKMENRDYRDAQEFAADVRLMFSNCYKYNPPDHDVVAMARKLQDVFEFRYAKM

C=CS(=O)(=O)Nc1ccc(Oc2ccc(F)cc2F)c(-c2cc(NC)c(=O)n(C)c2)c1 [Compound 3, N-(4-(2,4-difluorophenoxy)-3-(1-methyl-5-(methylamino)-6-oxo-1,6-dihydropyridin-3-yl)phenyl)ethenesulfonamide]
IC50 (KG-1a): 285 nM | IC50 (WSU-DLCL2): 84 nM | IC50 (KOPN-8): 9 nM | IC50 (NOMO-1): 205 nM | IC50 [1]: 28 nM | c-Myc suppression activity after washoff (c-Myc): sustained c-Myc suppression activity | IC50 (BRD4-2; Table 2, read-out: BET IC50 BRD4-2): 21 nM | IC50 (BRD4-2; Table 3, read-out: BRD4-2 IC50): 21 nM | IC50 (BRD2-2): 12 nM | IC50 [2]: 339 nM | cell inhibition activity after transient exposure (viable cells after wash-off) (MV4-11 cells): sustained cell inhibition activity
